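Briefly, cells in 96-well plates were exposed to five compound concentrations for 48 h, and endpoints were estimated by linear interpolation. Here, GI50 denotes the concentration required for 50% inhibition of growth.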 The source made the active and inactive calls. Cut-off read from the data, not from the text of the source: active = GI50 up to about 1.1 µM and inactive = higher.
Tests used:
Assay in all cases: NCI-60 cell line screen, 48 h
SK-MEL-28 = test system: SK-MEL-28
COLO 205 = test system: COLO 205
OVCAR-3 = test system: OVCAR-3
A549 = test system: A549
CCRF-CEM = test system: CCRF-CEM
U-251 = test system: U-251
DU-145 = test system: DU-145
OVCAR-5 = test system: OVCAR-5
MOLT-4 = test system: MOLT-4
Hs-578T = test system: Hs-578T
NCI-H226 = test system: NCI-H226
A498 = test system: A498
HCT-116 = test system: HCT-116
MCF7 = test system: MCF7
OVCAR-8 = test system: OVCAR-8
SF-539 = test system: SF-539
HT-29 = test system: HT-29
HCT-15 = test system: HCT-15
SN12C = test system: SN12C
PC-3 = test system: PC-3
SF-268 = test system: SF-268
UO-31 = test system: UO-31
SNB-19 = test system: SNB-19
NCI-H460 = test system: NCI-H460
TK-10 = test system: TK-10
SNB-75 = test system: SNB-75
SW-620 = test system: SW-620
BT-549 = test system: BT-549
SK-MEL-5 = test system: SK-MEL-5
CAKI-1 = test system: CAKI-1
HOP-62 = test system: HOP-62
K562 = test system: K562
SK-OV-3 = test system: SK-OV-3
MDA-N = test system: MDA-N
HOP-92 = test system: HOP-92
T47D = test system: T47D
HL-60 = test system: HL-60
HCC 2998 = test system: HCC 2998
SK-MEL-2 = test system: SK-MEL-2
786-0 = test system: 786-0
OVCAR-4 = test system: OVCAR-4
ACHN = test system: ACHN
SF-295 = test system: SF-295
M14 = test system: M14
LOX IMVI = test system: LOX IMVI
MDA-MB-435 = test system: MDA-MB-435
SR = test system: SR
NCI-H522 = test system: NCI-H522
RPMI-8226 = test system: RPMI-8226
RXF 393 = test system: RXF 393
NCI-H23 = test system: NCI-H23
EKVX = test system: EKVX
MDA-MB-231 = test system: MDA-MB-231
IGROV-1 = test system: IGROV-1
KM12 = test system: KM12
Malme-3M = test system: Malme-3M
NCI/ADR-RES = test system: NCI/ADR-RES
UACC-62 = test system: UACC-62
UACC-257 = test system: UACC-257

## C[C@]12CC[C@H](O)CC1=CC[C@@H]1[C@@H]2CC[C@]2(C)c3nc(Cl)ccc3C[C@@H]12
SK-MEL-28
  GI50: > 64.1 µM (inactive)
COLO 205
  GI50: > 100 µM (inactive)
OVCAR-3
  GI50: 27.3 µM (inactive)
A549
  GI50: 25 µM (inactive)
CCRF-CEM
  GI50: 8.17 µM (inactive)
U-251
  GI50: 31 µM (inactive)
DU-145
  GI50: > 100 µM (inactive)
OVCAR-5
  GI50: > 80.9 µM (inactive)
MOLT-4
  GI50: 8.45 µM (inactive)
Hs-578T
  GI50: 35.2 µM (inactive)
NCI-H226
  GI50: > 100 µM (inactive)
A498
  GI50: > 100 µM (inactive)
HCT-116
  GI50: 47 µM (inactive)
MCF7
  GI50: > 64.7 µM (inactive)
OVCAR-8
  GI50: 62.5 µM (inactive)
SF-539
  GI50: 14.9 µM (inactive)
HT-29
  GI50: 10.9 µM (inactive)
HCT-15
  GI50: 9.46 µM
SN12C
  GI50: 44.8 µM (inactive)
PC-3
  GI50: 74.3 µM (inactive)
SF-268
  GI50: 26.7 µM (inactive)
UO-31
  GI50: 7.52 µM (inactive)
SNB-19
  GI50: 36.1 µM (inactive)
NCI-H460
  GI50: 28.1 µM (inactive)
TK-10
  GI50: > 56.8 µM (inactive)
SNB-75
  GI50: 25 µM (inactive)
SW-620
  GI50: > 42.3 µM (inactive)
BT-549
  GI50: 26.1 µM (inactive)
SK-MEL-5
  GI50: > 46.2 µM (inactive)
CAKI-1
  GI50: > 100 µM (inactive)
HOP-62
  GI50: 30.7 µM (inactive)
K562
  GI50: 5.78 µM (inactive)
SK-OV-3
  GI50: 42.7 µM (inactive)
MDA-N
  GI50: 12.2 µM (inactive)
HOP-92
  GI50: > 100 µM (inactive)
T47D
  GI50: > 63.4 µM (inactive)
HL-60
  GI50: 40.1 µM (inactive)
HCC 2998
  GI50: > 58.1 µM (inactive)
SK-MEL-2
  GI50: > 100 µM (inactive)
786-0
  GI50: 30.1 µM (inactive)
OVCAR-4
  GI50: > 53.7 µM (inactive)
ACHN
  GI50: 15.6 µM (inactive)
SF-295
  GI50: 28.2 µM (inactive)
M14
  GI50: > 59.4 µM (inactive)
LOX IMVI
  GI50: 57.1 µM (inactive)
MDA-MB-435
  GI50: 6.76 µM (inactive)
SR
  GI50: 11.4 µM (inactive)
NCI-H522
  GI50: 49.8 µM (inactive)
RPMI-8226
  GI50: 39.4 µM (inactive)
RXF 393
  GI50: 37.9 µM (inactive)
NCI-H23
  GI50: 24.6 µM (inactive)
EKVX
  GI50: 11.4 µM (inactive)
MDA-MB-231
  GI50: > 94.6 µM (inactive)
IGROV-1
  GI50: 61.5 µM (inactive)
KM12
  GI50: 22.2 µM (inactive)
Malme-3M
  GI50: 53 µM (inactive)
NCI/ADR-RES
  GI50: 29.5 µM (inactive)
UACC-62
  GI50: 11.5 µM (inactive)
UACC-257
  GI50: > 100 µM (inactive)

## CN(C)CCNC(=O)c1ccc(NCCCN(C)CCCNc2ccc(C(=O)NCCN(C)C)c3nc4ccc([N+](=O)[O-])cc4c(O)c23)c2c(O)c3cc([N+](=O)[O-])ccc3nc12
SK-MEL-28
  GI50: 0.157 µM (active)
COLO 205
  GI50: < 0.0133 µM (active)
OVCAR-3
  GI50: 0.186 µM (active)
A549
  GI50: < 0.01 µM (active)
CCRF-CEM
  GI50: < 0.01 µM (active)
U-251
  GI50: < 0.01 µM (active)
DU-145
  GI50: < 0.0272 µM (active)
OVCAR-5
  GI50: 0.158 µM (active)
MOLT-4
  GI50: < 0.01 µM (active)
Hs-578T
  GI50: 0.0798 µM (active)
NCI-H226
  GI50: < 0.01 µM (active)
A498
  GI50: 0.116 µM (active)
HCT-116
  GI50: < 0.01 µM (active)
MCF7
  GI50: < 0.01 µM (active)
OVCAR-8
  GI50: < 0.01 µM (active)
SF-539
  GI50: 0.0186 µM (active)
HT-29
  GI50: < 0.0182 µM (active)
HCT-15
  GI50: 0.368 µM
SN12C
  GI50: < 0.01 µM (active)
PC-3
  GI50: < 0.01 µM (active)
SF-268
  GI50: 0.065 µM (active)
UO-31
  GI50: 0.154 µM (active)
SNB-19
  GI50: < 0.0146 µM (active)
NCI-H460
  GI50: < 0.01 µM (active)
TK-10
  GI50: 0.124 µM (active)
SNB-75
  GI50: 0.14 µM (active)
SW-620
  GI50: < 0.01 µM (active)
BT-549
  GI50: 0.447 µM (active)
SK-MEL-5
  GI50: 0.0346 µM (active)
CAKI-1
  GI50: 0.757 µM (active)
HOP-62
  GI50: 0.154 µM (active)
K562
  GI50: 0.0135 µM (active)
SK-OV-3
  GI50: 0.232 µM (active)
MDA-N
  GI50: 0.155 µM (active)
HOP-92
  GI50: 0.0431 µM (active)
T47D
  GI50: 0.32 µM (active)
HL-60
  GI50: 0.0277 µM (active)
HCC 2998
  GI50: 0.0347 µM (active)
SK-MEL-2
  GI50: 0.0111 µM (active)
786-0
  GI50: < 0.0197 µM (active)
OVCAR-4
  GI50: 0.127 µM (active)
ACHN
  GI50: < 0.0121 µM (active)
SF-295
  GI50: 0.0495 µM (active)
M14
  GI50: 0.5 µM (active)
LOX IMVI
  GI50: < 0.01 µM (active)
MDA-MB-435
  GI50: 0.0861 µM (active)
SR
  GI50: 0.0311 µM (active)
NCI-H522
  GI50: < 0.01 µM (active)
RPMI-8226
  GI50: < 0.01 µM (active)
RXF 393
  GI50: 0.101 µM (active)
NCI-H23
  GI50: 0.126 µM (active)
EKVX
  GI50: 0.301 µM (active)
MDA-MB-231
  GI50: 0.05 µM (active)
IGROV-1
  GI50: < 0.01 µM (active)
KM12
  GI50: 0.04 µM (active)
Malme-3M
  GI50: 0.126 µM (active)
NCI/ADR-RES
  GI50: 1.23 µM (inactive)
UACC-62
  GI50: 0.0538 µM (active)
UACC-257
  GI50: 0.385 µM (active)

Source: ChEMBL document CHEMBL1201862, “PubChem BioAssay data set” (2004)
